Measurements taken from ChEMBL document CHEMBL2021805, “Structural polymorphism of human telomere G-quadruplex induced by a pyridyl carboxamide molecule” (Bioorg Med Chem Lett, 2012).
Calls of active or inactive are those of the source. The calls are words filed in the database; no cut-off is given here.

Experiments:
Format in all cases: nucleic-acid assay
Nucleic Acid [1] = assay: Stabilization of human hybrid-type G-quadruplex G4A in 100 mM Na+ solution at room temperature assessed as formation of anti-parallel structure at 60 uM by CD spectroscopy
Nucleic Acid [2] = assay: Binding affinity to human G-quadruplex FAM-21G at 20 uM by native PAGE analysis
Nucleic Acid [3] = assay: Stabilization of human G-quadruplex G4A in 100 mM K+ solution assessed as formation of stable parallel structure measuring transformation rate constant at 60 uM after 1 day at 37 degC by CD spectroscopy
Nucleic Acid [4] = assay: Stabilization of human G-quadruplex G4A in 100 mM K+ solution assessed as time required to the formation of stable parallel structure at 60 uM at 37 degC by CD spectroscopy
Nucleic Acid [5] = assay: Stabilization of human G-quadruplex G4A in 100 mM K+ solution assessed as time required to the formation of stable snti-parallel quadruplex structure at 60 uM at 37 degC by CD spectroscopy
Nucleic Acid [6] = assay: Stabilization of human hybrid-type G-quadruplex G4A in 100 mM K+ solution at room temperature assessed as formation of anti-parallel structure at 60 uM by CD spectroscopy
Nucleic Acid [7] = assay: Stabilization of human G-quadruplex G4A in 100 mM K+ solution assessed as formation of stable parallel structure at 60 uM after heating at 95 degC and cooling to room temperature by CD spectroscopy
Nucleic Acid [8] = assay: Stabilization of human G-quadruplex G4A in 100 mM K+ solution assessed as formation of stable parallel structure at 60 uM after 1 day at 37 degC by CD spectroscopy
Nucleic Acid [9] = assay: Binding affinity to human G-quadruplex FAM-21G at 10 uM after 2 to 24 hrs by native PAGE analysis
Nucleic Acid [10] = assay: Binding affinity to human G-quadruplex Ap-6 substituted 21G assessed as fluorescence quenching using ascorbic acid at 5 uM up to 1 hr by fluorescence analysis
Nucleic Acid [11] = assay: Binding affinity to human G-quadruplex Ap-12 substituted 21G assessed as fluorescence quenching using ascorbic acid at 5 uM up to 1 hr by fluorescence analysis
Nucleic Acid [12] = assay: Binding affinity to human G-quadruplex Ap-18 substituted 21G assessed as fluorescence quenching using ascorbic acid at 5 uM up to 1 hr by fluorescence analysis
Nucleic Acid [13] = assay: Binding affinity to human G-quadruplex Ap-6 substituted 21G at 5 uM up to 1 hr by fluorescence analysis
Nucleic Acid [14] = assay: Binding affinity to human G-quadruplex Ap-12 substituted 21G at 5 uM up to 1 hr by fluorescence analysis
Nucleic Acid [15] = assay: Binding affinity to human G-quadruplex Ap-18 substituted 21G at 5 uM up to 1 hr by fluorescence analysis

Activity (Nucleic Acid [1]): inactive
Activity (Nucleic Acid [2]): Active
Activity (Nucleic Acid [3]): 6.2 ×10⁻⁵ /s
TIME (Nucleic Acid [4]): 20 h
TIME (Nucleic Acid [5]): 3 h
Activity (Nucleic Acid [6]): Active
Activity (Nucleic Acid [7]): Active
Activity (Nucleic Acid [8]): 99%
Activity (Nucleic Acid [9]): Active
Activity (Nucleic Acid [10]): Active
Activity (Nucleic Acid [11]): Active
Activity (Nucleic Acid [12]): Active
Activity (Nucleic Acid [13]): Active
Activity (Nucleic Acid [14]): Active
Activity (Nucleic Acid [15]): Active
Compound: C[N+]1(CC(=O)Nc2cccc(NC(=O)c3cccc(C(=O)Nc4cccc(NC(=O)C[N+]5(C)CCCCC5)n4)n3)n2)CCCCC1
